Assay results taken from US20250115578A1, “AROMATIC FUSED RING NAV1.8 INHIBITOR, AND USE THEREOF” (CHENGDU KANGHONG PHARMACEUTICAL CO., LTD., priority 2022, published 2025).
In brackets after ≈: the same amount, converted by molar mass.

Assays:
[1] = Stability assay for human liver microsomes in vitro; assay type: in vitro ADME; details: 1 μM compound, 0.5 mg/mL liver microsomes, read-out: Human liver microsome stability T1/2
Description: • Human liver microsomes, purchased from Corning or Xenotech, stored in a −80° C. refrigerator. • Nicotinamide adenine dinucleotide phosphate (NADPH), Chem-impex international, 00616 • Control compounds: testosterone, diclofenac, propafenone
• Water bath (HH-60, Guohua, Changzhou, China) • Pipette workstation (PP-550DS, Apricot, Covina, USA) • Centrifuge (5810R, Eppendorf, Hamburg, Germany) • Mass Spectrometer (Sciex API 4000, Singapore) • High Performance Liquid Chromatography (LC 20-AD, Shimadzu, Kyoto, Japan) • Sampler (ADDA, Apricot Designs, California, USA)
• Stock solution: 10 mM in DMSO • Working solution concentration preparation: 10 mM stock solution was diluted to 100 μM with 100% acetonitrile (organic phase content: 99% ACN, 1% DMSO)
Two 96-well incubation plates were named T60 incubation plate and NCF60 incubation plate.
445 μL microsomal working solution (liver microsomal protein concentration: 0.56 mg/mL) was added to the T60 and NCF60 incubation plates respectively, then the incubation plates above were placed in a water bath at 37° C. for pre-incubation approximately 10 minutes.
After the pre-incubation finished, 5 μL of the test compound working solution was added to the T60 and NCF60 incubation plates respectively, and mixed well. 50 μL potassium phosphate buffer was added to each well on the NCF60 incubation plate to start the reaction. 180 μL termination solution (acetonitrile solution containing 200 ng/mL tolbutamide and 200 ng/mL labetalol) and 6 uL working solution of NADPH regeneration system were added to the TO termination plate, and 54 μL samples were removed from the T60 incubation plate to the TO termination plate (TO sample generated). The reaction was initiated by adding 44 μL of NADPH regenerating system working solution per well on the T60 incubation plate. Only 54 μL microsomal working solution, 6 uL NADPH regeneration system working solution, and 180 μL termination solution were added to the Blank plate. Therefore, in the samples of the test or control compounds, the final reaction concentration of the compounds, testosterone, diclofenac and propafenone was 1 μM, the concentration of the liver microsomes was 0.5 mg/mL, and the final concentration of DMSO and acetonitrile in the reaction system was 0.01% (v/v) and 0.99% (v/v), respectively.
After incubation for an appropriate time (e.g. 5, 10, 20, 30, and 60 minutes), 180 μL of termination solution (acetonitrile solution containing 200 ng/mL tolbutamide and 200 ng/mL labetalol) was added to the sample hole of each termination plate, respectively. After that, 60 μL sample was removed from the T60 incubation plate to terminate the reaction.
All sample plates were shaken evenly and centrifuged at 3220×g for 20 min. Then 80 μL supernatant was taken from each well and diluted to 240 μL pure water for LC-MS/MS analysis.
All samples were injected for analysis.

hNav1.8 = hNav1.8 (Homo sapiens (Human), UniProt Q9Y5Y9); assay: Manual patch clamp, Method 1 (CHO cell line stably expressing hNav1.8); assay type: cell-based; details: for inhibition at 0.01 µM: 10 nM; for inhibition at 0.01 µM / inhibition at 0.1 µM: Method 1, CHO-hNav1.8, read-out: Inhibition rate of hNav1.8; for inhibition at 0.1 µM: 100 nM; for IC50: Method 1, CHO-hNav1.8, manual patch clamp, resting state, read-out: IC50 inhibitory activity against hNav1.8
Excerpt: The patch clamp technique is known as the “gold standard” for studying ion channels, and it uses glass microelectrodes to seal the cell membrane to measure the currents of various membrane channel. […] Patch clamp technology can evaluate the inhibition strength of different compounds on different states of Navs by measuring the changes of membrane channel currents after different compounds bind to different states of Navs.
The representative compounds of the present invention used stable CHO or HEK293 cell lines transfected with specific ion channels to measure the effect of the compounds on Nav1.8 currents by manual patch clamp test, to evaluate their inhibition strength.
The assay protocol of manual patch clamp is as follows:
CHO cell lines with stable expression of hNav1.8 were cultured in F12 medium containing 10% fetal bovine serum at a constant temperature of 37° C., and the carbon dioxide concentration was maintained at 5%. The old culture medium was removed and washed once with PBS, then 1 mL 0.25%-Trypsin-EDTA solution was added and incubated at 37° C. for 1 min. When the cells were detached from the bottom of the dish, 5 mL of the complete medium preheated at 37° C. was added, and the aggregated cells were separated by gently blowing with a straw. The cell suspension was transferred into a sterile centrifuge tube and centrifuged at 1000 rpm for 5 min to collect cells. The cells were then inoculated into a cell culture dish with a diameter of 6 cm (2.5×10^5 cells/petri dish, 5 mL medium) for expansion or maintenance.
In order to maintain the electrophysiological activity of the cells, the cell density must be less than 80%.
The cells were separated with 0.25%-Trypsin-EDTA before the assay, and 5×10^3 cells were seeded on a cover slip and cultured in a 24-well plate (final volume: 500 μL) for 18 h. Then the assay was conducted.
The compounds prepared in the examples of the present invention were dissolved in dimethyl sulfoxide (DMSO) and prepared into DMSO stock solution with a concentration of 10 mM for assay. And it was diluted to various concentrations with extracellular solution (140 mM NaCl, 3.5 mM KCl, 1 mM MgCl2, 2 mM CaCl2), 10 mM Glucose, 10 mM HEPES, 1.25 mM NaH2PO4, pH=7.4 regulated by NaOH), and the final concentration of DMSO in each compound sample was 0.10% or less.
A capillary glass pipette (BF150-86-10, Sutter Instruments) was pulled into a recording electrode with a micropipette puller (P97, Sutter Instruments). The micromanipulator (MP285, Sutter Instruments) was manipulated under an inverted microscope (IX71, Olympus) to make the recording electrode contact the cell and negative pressure suction was applied to achieve a GQ seal. Then, rapid capacitance compensation was performed, and negative pressure was continued, cell membrane was broken by suction, and whole cell recording mode was formed. Then the slow capacitance was compensated and the membrane capacitance and series resistance were recorded without leakage compensation. When the whole cell recording current was stabilized, dosing was initiated, and the next concentration was detected after acting 5 minutes of each drug concentration. Multiple cells were independently repeated during the recording period. All electrophysiological assays were performed at room temperature. Specifically, 6 concentrations (measuring IC50) or 2 concentrations (preliminary screening) were set for each compound, and the percentage of inhibition of sodium channels was determined by calculating the relative percentage of peak current generated before and after each concentration compound treated cells, and the IC50 value or percentage of inhibition at a specific concentration was calculated using IGOR pro software.

[2] = Assay of kinetic solubility; assay type: physicochemical; details: aqueous buffer, kinetic from dmso stock, pH 3.5 phosphate buffer, 25° C.
Description: The stock solutions of the test compound and the standard progesterone were prepared in DMSO at the concentration of 10 mM.
30 μL of stock solutions at 10 mM of the test compounds and standard substance were placed in order into their proper 96-well plate. 970 μL phosphate buffer at the specified pH was added to the proper vial of the sample plate. The assay was performed in duplicate. A stirring stick was added to each vial and the teflon/silicone plug was capped. The sample tray was then placed in the Eppendorf Thermomixer Comfort and shaken at 1100 RPM at 25° C. for 2 hours. After 2 hours, plugs were removed, a big magnet was used to remove the stirring sticks, and samples were transferred from the sample plate to the filter plate. Vacuum pump was used to create negative pressure and filtered the samples. Transferred 5 μL of the filtrate to the new sample plate, then added 5 μL DMSO and 490 μL water/acetonitrile (V/V=1/1) to dilute the solvent. The dilution factor may be adjusted according to the solubility values of the substances to be tested or the strength of its LC-MS signal response.
From the 10 mM DMSO stock solution, 15 μL of that was transferred into the empty plate and 485 μL DMSO was added to prepare a 300 μM standard solution. From the 300 μM standard solution plate, 5 μL of that was transferred to another empty plate and 5 μL phosphate buffer at specified pH and 490 μL water/acetonitrile (V/V=1/1) dilution solvent were added to the standard solution to get a final concentration of 3 μM. The concentration of the standard solution may be adjusted according to the strength of its LC-MS signal response.
The sample plate was placed into the sample tray of the automatic sampler and the samples were evaluated by LC-MS/MS analysis.
All calculations were carried out by Microsoft Excel.
The sample filtrate was analyzed and quantified against a standard of known concentrations using LC-MS spectral peaks to identify and quantify. The solubility values of the control drug and the compounds to be tested were calculated as the following formula: • [Sample]: concentration of the sample • AREASample: peak area of the sample • INJ VOLStd: standard sample injection volume • DFSample: sample dilution factor • [STD]: standard substance concentration • AREAStd: peak area of standard substance • INJ VOLSample: sample injection volume

Chain of hNav1.8 (Q9Y5Y9 whole entry): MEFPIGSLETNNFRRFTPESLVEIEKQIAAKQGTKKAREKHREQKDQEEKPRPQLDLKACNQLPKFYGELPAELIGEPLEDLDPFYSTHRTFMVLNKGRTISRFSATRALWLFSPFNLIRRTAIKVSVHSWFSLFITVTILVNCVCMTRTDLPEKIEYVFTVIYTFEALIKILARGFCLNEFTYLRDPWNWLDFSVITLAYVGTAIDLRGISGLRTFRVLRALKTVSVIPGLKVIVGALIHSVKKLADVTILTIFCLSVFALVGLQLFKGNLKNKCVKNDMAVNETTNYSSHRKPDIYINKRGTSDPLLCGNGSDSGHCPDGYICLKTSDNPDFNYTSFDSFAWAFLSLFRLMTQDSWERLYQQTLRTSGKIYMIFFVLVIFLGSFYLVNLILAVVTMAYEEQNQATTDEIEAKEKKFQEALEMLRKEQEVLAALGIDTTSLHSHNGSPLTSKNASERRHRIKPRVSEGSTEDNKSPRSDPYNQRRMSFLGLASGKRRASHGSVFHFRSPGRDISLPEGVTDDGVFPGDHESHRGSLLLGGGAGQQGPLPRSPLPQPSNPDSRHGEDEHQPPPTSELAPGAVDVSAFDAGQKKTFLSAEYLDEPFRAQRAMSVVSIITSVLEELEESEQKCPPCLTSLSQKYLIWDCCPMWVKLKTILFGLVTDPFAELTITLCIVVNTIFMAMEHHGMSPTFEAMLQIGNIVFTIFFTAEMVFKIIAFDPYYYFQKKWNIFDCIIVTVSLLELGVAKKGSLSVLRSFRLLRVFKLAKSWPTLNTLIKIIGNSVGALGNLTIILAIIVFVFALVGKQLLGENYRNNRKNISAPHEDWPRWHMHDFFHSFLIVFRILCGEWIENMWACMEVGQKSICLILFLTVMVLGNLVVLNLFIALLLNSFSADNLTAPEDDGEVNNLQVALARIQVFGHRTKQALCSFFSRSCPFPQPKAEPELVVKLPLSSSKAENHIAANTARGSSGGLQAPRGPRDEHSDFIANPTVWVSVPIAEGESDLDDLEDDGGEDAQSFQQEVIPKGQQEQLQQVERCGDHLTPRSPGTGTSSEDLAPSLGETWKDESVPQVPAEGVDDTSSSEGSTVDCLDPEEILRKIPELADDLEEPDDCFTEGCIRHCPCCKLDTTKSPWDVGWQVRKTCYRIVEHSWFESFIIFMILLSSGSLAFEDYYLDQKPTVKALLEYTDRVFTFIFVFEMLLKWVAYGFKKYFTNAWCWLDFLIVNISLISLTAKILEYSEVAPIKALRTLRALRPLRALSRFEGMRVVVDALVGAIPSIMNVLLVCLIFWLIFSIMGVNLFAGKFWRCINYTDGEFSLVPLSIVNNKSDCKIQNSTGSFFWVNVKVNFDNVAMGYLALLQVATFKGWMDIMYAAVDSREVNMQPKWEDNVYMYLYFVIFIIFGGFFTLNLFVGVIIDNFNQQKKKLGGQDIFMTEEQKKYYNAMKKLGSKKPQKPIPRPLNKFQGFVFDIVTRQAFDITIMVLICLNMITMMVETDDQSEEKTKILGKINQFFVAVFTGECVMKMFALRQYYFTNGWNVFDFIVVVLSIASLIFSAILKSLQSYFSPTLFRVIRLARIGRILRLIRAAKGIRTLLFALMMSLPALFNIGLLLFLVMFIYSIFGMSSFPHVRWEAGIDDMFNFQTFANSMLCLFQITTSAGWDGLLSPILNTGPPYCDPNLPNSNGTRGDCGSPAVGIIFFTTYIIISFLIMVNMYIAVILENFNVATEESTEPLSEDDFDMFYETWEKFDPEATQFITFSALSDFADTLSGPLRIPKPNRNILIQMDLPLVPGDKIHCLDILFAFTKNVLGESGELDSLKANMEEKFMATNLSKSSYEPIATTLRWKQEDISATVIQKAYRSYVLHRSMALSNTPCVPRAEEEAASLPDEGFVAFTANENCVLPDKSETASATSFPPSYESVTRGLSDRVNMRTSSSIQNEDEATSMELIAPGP

Row | half-life at 1 µM [1] | inhibition at 0.01 µM (hNav1.8) | inhibition at 0.1 µM (hNav1.8) | solubility kinetic at 2 h [2] | IC50 (hNav1.8) | SMILES
1 | > 2.42 h | 0.36% | 41.8% | – | – | O=C(Nc1ccc[n+]([O-])c1)c1nc2ccccc2nc1N1CCCC(F)(F)CC1 [Example 01]
2 | 1.32 h | 19.7% | 70% | – | – | O=C(Nc1cc[nH]c(=O)c1)c1nc2ccccc2nc1N1CCCC(F)(F)CC1 [Example 03, 3-(4,4-difluoroazepan-1-yl)-N-(2-carbonyl-1,2-dihydropyridin-4-yl)quinoxaline-2-carboxamide]
3 | 1.33 h | 3.33% | 46% | – | – | O=C(Nc1cn[nH]c(=O)c1)c1nc2ccccc2nc1N1CCCC(F)(F)CC1 [Example 04, 3-(4,4-difluoroazepan-1-yl)-N-(6-carbonyl-1,6-dihydropyridazin-4-yl)quinoxaline-2-carboxamide]
4 | – | 15.3% | 72.8% | – | – | NC(=O)c1cc(NC(=O)c2nc3ccccc3cc2N2CCCC(F)(F)CC2)ccc1F [Example 11, N-(3-carbamoyl-4-fluorophenyl)-3-(4,4-difluoroazepan-1-yl) quinoline-2-carboxamide]
5 | – | 95.8% | 100% | – | – | NC(=O)c1cccc(NC(=O)c2cc3cc(F)c(F)cc3nc2N2CCCC(F)(F)CC2)c1 [Example 12, N-(3-carbamoylphenyl)-2-(4,4-difluoroazepan-1-yl)-6,7-difluoroquinoline-3-carboxamide]
6 | – | 95.6% | 99.7% | 3.38 µM (≈ 1.56 µg/mL) | – | NS(=O)(=O)c1cccc(NC(=O)c2cc3ccccc3nc2N2CCCC(F)(F)CC2)c1 [Example 13, 2-(4,4-difluoroazepan-1-yl)-N-(3-sulfamoylphenyl)quinoline-3-carboxamide]
7 | – | 15.4% | 49.9% | – | – | NC(=O)c1cc(NC(=O)c2nc3ccccc3cc2N2CCCC(F)(F)CC2)ccn1 [Example 15, N-(2-carbamoylpyridin-4-yl)-3-(4,4-difluoroazepan-1-yl) quinoline-2-carboxamide]
8 | > 2.42 h | 98.3% | 100% | – | 0.095 nM | NS(=O)(=O)c1cc(NC(=O)c2cc3cc(F)c(F)cc3nc2N2CCCC(F)(F)CC2)ccn1 [Example 17, 2-(4,4-difluoroazepan-1-yl)-6,7-difluoro-N-(2-sulfamoylpyridine-4-yl)quinoline-3-carboxamide]
9 | – | -3.14% | 21.5% | – | – | NC(=O)c1cc(NC(=O)c2cc3cccnc3cc2N2CCCC(F)(F)CC2)ccn1 [Example 18, N-(2-carbamoylpyridin-4-yl)-7-(4,4-difluoroazepan-1-yl)quinoline-6-carboxamide]
10 | – | 0.44% | 16.6% | – | – | NC(=O)c1cc(NC(=O)c2cc3cccnc3cc2N2CCCC(F)(F)CC2)ccc1F [Example 19, N-(3-carbamoyl-4-fluorophenyl)-7-(4,4-difluoroazepan-1-yl)quinoline-6-carboxamide]
11 | – | 19.5% | 81.1% | – | – | NC(=O)c1cc(NC(=O)c2nc3ccc(Cl)cc3cc2N2CCCC(F)(F)CC2)ccn1 [Example 20, N-(2-carbamoylpyridin-4-yl)-6-chloro-3-(4,4-difluoroazepan-1-yl)quinoline-2-carboxamide]
12 | 0.943 h | – | – | – | 0.36 nM | NC(=O)c1cc(NC(=O)c2cc3cc(F)c(F)cc3nc2N2CCCC(F)(F)CC2)ccc1F [Example 21, N-(3-carbamoyl-4-fluorophenyl)-2-(4,4-difluoroazepan-1-yl)-6,7-difluoroquinoline-3-carboxamide]
13 | – | – | 90.7% | – | – | COc1ccc2cc(C(=O)Nc3ccnc(C(N)=O)c3)c(N3CCCC(F)(F)CC3)nc2c1 [Example 22, N-(2-carbamoylpyridin-4-yl)-2-(4,4-difluoroazepan-1-yl)-7-methoxyquinoline-3-carboxamide]
14 | – | – | 83.7% | < 1.56 µM | – | CNS(=O)(=O)c1cc(NC(=O)c2cc3cc(F)c(F)cc3nc2N2CCCC(F)(F)CC2)ccn1 [Example 29, 2-(4,4-difluoroazepan-1-yl)-6,7-difluoro-N-(2-(N-methylsulfamoyl)pyridin-4-yl)quinoline-3-carboxamide]
